ChEMBL document CHEMBL5338729, “E3 Ligases Meet Their Match: Fragment-Based Approaches to Discover New E3 Ligands and to Unravel E3 Biology” (J Med Chem, 2023)
Each block holds one compound with its values, some of them ahead of it.

Assays:
Protein cereblon = Protein cereblon (Homo sapiens, UniProt Q96SW2); assay: Binding affinity to CRBN (unknown origin) assessed as inhibition constant by FRET assay
[1] = molecular target: T1, E3 ubiquitin-protein ligase RNF4 (Homo sapiens, UniProt P78317); assay: Inhibition of human recombinant RNF4 incubated for 30 mins by SDS-PAGE based densitometry
T1 sequence (P78317 whole entry): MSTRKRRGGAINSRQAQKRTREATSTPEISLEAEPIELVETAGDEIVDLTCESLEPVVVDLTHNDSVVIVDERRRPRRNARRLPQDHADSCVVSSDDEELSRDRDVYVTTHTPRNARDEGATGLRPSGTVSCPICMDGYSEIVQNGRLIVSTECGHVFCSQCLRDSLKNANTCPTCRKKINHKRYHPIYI

[2] = Binding affinity to RING1B-BMI1 (unknown origin); set-up: species or system Homo sapiens
[3] = molecular target: von Hippel-Lindau disease tumor suppressor (Homo sapiens, UniProt P40337); assay: Binding affinity to VHL (unknown origin) assessed as dissociation constant by isothermal titration calorimetry assay
[4] = Inhibition of RING1B-BMI1 (unknown origin); set-up: species or system Homo sapiens
[5] = molecular target: T2, E3 ubiquitin-protein ligase RNF31 (Homo sapiens, UniProt Q96EP0); assay: Binding affinity to HOIP (unknown origin) assessed as dissociation constant
T2 sequence (Q96EP0 whole entry): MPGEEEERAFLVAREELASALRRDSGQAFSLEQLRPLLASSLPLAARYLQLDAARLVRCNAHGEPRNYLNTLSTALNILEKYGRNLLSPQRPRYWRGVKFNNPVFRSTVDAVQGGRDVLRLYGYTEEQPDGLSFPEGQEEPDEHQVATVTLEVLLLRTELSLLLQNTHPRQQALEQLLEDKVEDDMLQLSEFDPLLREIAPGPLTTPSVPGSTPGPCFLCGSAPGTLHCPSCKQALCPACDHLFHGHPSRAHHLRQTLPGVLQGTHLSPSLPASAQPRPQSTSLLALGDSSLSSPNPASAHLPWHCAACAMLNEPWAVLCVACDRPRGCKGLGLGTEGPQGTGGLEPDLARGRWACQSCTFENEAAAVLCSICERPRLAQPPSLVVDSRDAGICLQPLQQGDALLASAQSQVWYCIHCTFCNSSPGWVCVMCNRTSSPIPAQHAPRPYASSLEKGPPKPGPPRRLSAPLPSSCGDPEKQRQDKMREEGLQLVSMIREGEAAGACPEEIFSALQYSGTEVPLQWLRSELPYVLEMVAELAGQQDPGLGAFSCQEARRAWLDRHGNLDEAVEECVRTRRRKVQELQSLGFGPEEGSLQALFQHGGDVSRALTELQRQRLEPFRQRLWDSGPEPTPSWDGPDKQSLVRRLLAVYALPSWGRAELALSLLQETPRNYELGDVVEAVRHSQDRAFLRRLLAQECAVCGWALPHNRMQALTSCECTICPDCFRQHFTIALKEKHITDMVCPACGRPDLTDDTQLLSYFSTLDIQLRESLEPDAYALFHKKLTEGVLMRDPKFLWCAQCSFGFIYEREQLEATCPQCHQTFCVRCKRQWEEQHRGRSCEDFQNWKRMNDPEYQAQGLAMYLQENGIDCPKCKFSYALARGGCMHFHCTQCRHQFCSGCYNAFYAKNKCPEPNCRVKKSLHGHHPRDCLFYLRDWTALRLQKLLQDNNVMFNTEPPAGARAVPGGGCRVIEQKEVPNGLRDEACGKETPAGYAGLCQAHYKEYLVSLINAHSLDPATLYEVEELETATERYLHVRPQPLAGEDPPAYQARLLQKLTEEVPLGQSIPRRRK

Sequence of Protein cereblon (Q96SW2 whole entry): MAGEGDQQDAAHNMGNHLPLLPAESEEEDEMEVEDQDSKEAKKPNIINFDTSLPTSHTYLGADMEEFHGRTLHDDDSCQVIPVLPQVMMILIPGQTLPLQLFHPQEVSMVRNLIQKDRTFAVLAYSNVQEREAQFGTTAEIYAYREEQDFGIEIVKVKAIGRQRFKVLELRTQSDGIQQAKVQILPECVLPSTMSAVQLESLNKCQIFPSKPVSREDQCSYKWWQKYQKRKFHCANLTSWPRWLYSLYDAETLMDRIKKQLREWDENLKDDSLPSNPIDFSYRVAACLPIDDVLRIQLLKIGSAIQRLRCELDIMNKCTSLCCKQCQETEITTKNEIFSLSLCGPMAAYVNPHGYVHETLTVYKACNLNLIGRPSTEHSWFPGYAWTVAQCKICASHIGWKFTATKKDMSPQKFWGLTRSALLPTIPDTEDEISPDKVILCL
Sequence of von Hippel-Lindau disease tumor suppressor (P40337 whole entry): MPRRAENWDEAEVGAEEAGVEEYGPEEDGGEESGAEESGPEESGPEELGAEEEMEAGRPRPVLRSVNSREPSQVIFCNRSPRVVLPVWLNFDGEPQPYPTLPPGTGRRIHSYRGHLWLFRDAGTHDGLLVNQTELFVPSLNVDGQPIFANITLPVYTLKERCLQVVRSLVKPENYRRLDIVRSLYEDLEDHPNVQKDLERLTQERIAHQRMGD

Ki (Protein cereblon): 88 µM
SMILES: O=C1CCNC(=O)N1

Kd [3]: 6700 µM
SMILES: O=C1CCSc2ccc(Cl)cc21

Kd [2]: 11.5 µM
IC50 [4]: 12 µM
SMILES: CCc1c(-c2cccc3[nH]ccc23)[nH]c(C(=O)O)c1-c1ccccc1Cl

Ki (Protein cereblon): 43 µM
SMILES: O=C1CNC(=O)N1 [HYDANTOIN]

Ki (Protein cereblon): 4.3 µM
SMILES: O=C1CCC(=O)N1 [SUCCINIMIDE]

Ki (Protein cereblon): 35 µM
SMILES: O=c1cc[nH]c(=O)[nH]1 [URACIL]

Second part, the compound before the results:

SMILES: O=C1CCCCN1
Ki (Protein cereblon): 146 µM

SMILES: O=C(CCl)Nc1ccc(Oc2ccccc2)cc1
IC50 [1]: 10 µM

SMILES: O=C1CCN1
Ki (Protein cereblon): 77 µM

SMILES: O=C(O)c1ccc(-c2ccccc2)s1
Kd [2]: ~7000 µM

SMILES: OCc1ccc(-n2cccc2)cc1
Kd [3]: 5000 µM

SMILES: CC(C)c1c(-c2cccc3[nH]ccc23)[nH]c(C(=O)O)c1-c1c(Cl)ccc2[nH]ccc12
Kd [2]: 2.8 µM
IC50 [4]: 1.6 µM

SMILES: CC(=O)NC(N)=O
Ki (Protein cereblon): 522 µM

SMILES: COC(=O)/C=C/CNC(=O)c1cc2c([nH]c1=O)CCC2
Kd [5]: > 400 µM
